In patent US20110288101A1, “SURGICAL CO[…]-RECEPTOR AGONISTS” (ALCON RESEARCH, LTD., priority 2010, published 2011):

Tested on: rabbit corneal endothelial cells
Test: MTS cell viability assay, protection against hydrogen peroxide oxidative stress
Assay type: cell-based
Conditions: rabbit corneal endothelial cells in serum-free medium; 70 μM H2O2; 24 hours; 1 to 300 μM (+)-pentazocine; p<0.05 vs H2O2 control; FIG. 1
Protocol: Studies were performed to determine whether (+)-pentazocine can protect corneal endothelial cells. Hydrogen peroxide was employed to produce oxidative stress to rabbit corneal endothelial cells in vitro.
Briefly, rabbit corneal endothelial cells maintained in serum-free medium were treated with the sigma-1 receptor agonist (+)-pentazocine and 70 μM H2O2 for 24 hours. At the end point, a cell viability assay (MTS assay) is performed. The MTS assay is a laboratory test and standard colorimetric assay for measuring the activity of enzymes that reduce MTS+PMS to formazan, producing a purple color. MTS (3-(4,5-dimethylthiazol-2-yl)-5-(3-carboxymethoxyphenyl)-2-(4-sulfophenyl)-2H-tetrazolium), in the presence of phenazine methosulfate (PMS), produces a water-soluble formazan product that has an absorbance maximum at 490-500 nm in phosphate-buffered saline. These reduction reactions take place only when reductase enzymes are active, and the production of formazan product is therefore used as a measure of cell viability.
Lower absorbance numbers correlate to reduced cell viability.

For `CC(C)=CCN1CCC2(C)c3cc(O)ccc3CC1C2C` (single isomer, unassigned; (+)) [(+)-pentazocine], the “protection of cell viability (MTS absorbance) against damage induced by hydrogen peroxide” value was “dose-dependent protection”.
